Source: publication PMC10485820 (European Journal of Pharmaceutical Sciences, 2023)
Like-named read-outs stand apart in the source and are kept apart here.

Legend:
[1] = biological target: T1, OATP1B1 (Homo sapiens, UniProt Q9Y6L6); experiment: Preclinical transporter substrate assessment (unpublished); format: in vitro ADME
T1 sequence (Q9Y6L6 1-691): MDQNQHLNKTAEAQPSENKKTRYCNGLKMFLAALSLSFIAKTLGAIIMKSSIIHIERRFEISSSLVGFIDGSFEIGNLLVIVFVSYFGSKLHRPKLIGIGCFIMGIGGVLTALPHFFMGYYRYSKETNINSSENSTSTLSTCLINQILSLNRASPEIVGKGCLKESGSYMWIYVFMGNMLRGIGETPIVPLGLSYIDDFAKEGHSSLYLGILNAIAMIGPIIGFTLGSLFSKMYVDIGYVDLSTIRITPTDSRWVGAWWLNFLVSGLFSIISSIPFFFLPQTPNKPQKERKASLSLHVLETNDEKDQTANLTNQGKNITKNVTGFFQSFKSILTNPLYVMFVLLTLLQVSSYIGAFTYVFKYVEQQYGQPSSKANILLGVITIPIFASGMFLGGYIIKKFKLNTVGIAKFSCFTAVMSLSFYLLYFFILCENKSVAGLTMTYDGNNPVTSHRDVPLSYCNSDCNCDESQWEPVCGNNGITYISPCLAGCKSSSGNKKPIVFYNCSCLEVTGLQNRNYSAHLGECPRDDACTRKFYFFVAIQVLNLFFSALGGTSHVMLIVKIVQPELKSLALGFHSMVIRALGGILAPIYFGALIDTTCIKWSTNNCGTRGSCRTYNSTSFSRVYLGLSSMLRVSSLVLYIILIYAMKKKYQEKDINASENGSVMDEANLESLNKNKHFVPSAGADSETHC

[2] = Multidose clinical study of biweekly HSK7653 IR tablets in T2DM patients (CTR20182505): pharmacokinetics; format: in vivo, human; conditions: biweekly administration of IR tablets
[3] = Single ascending dose clinical study in Chinese healthy volunteers (CTR20180791): pharmacokinetics; format: in vivo, human; conditions: for AUC / Cmax / clearance / Vd/F: human, in vivo, oral, Chinese healthy volunteers; for clearance: read-out: CL Obs (converted); for Vd/F: read-out: VZ/F Obs
[4] = biological target: T2, OAT1 (Homo sapiens, UniProt Q4U2R8); experiment: Preclinical transporter substrate assessment (unpublished); format: in vitro ADME
T2 sequence (Q4U2R8 1-563): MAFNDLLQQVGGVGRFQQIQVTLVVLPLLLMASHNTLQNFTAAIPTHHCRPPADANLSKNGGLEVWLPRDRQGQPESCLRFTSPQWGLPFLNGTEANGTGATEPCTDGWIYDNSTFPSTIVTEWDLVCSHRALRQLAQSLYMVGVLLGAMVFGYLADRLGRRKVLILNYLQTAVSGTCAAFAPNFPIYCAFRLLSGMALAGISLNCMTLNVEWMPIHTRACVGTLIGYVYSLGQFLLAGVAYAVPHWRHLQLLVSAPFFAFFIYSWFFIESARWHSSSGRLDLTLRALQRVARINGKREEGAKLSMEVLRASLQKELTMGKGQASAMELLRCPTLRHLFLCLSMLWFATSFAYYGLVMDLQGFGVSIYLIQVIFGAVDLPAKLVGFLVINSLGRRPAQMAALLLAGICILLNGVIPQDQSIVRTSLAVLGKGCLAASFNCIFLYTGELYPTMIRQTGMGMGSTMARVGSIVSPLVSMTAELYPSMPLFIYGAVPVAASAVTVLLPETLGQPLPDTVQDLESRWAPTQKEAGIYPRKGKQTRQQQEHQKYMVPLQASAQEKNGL

[5] = Particle size distribution of the API (laser diffraction); format: physicochemical; conditions: dry method
Experimental: The determination was performed in a dry method with a Scirocco dry powder feeder, and the air was used as the dispersion agent ([Tari et al., 2015]). Meanwhile, the analysis results, d (0.1), d (0.5) and d (0.9) (defined as the diameter where 10%, 50% and 90% of population lies below this value), were directly output.

[6] = biological target: T3, OCT2 (Homo sapiens, UniProt O15244); experiment: Preclinical transporter substrate assessment (unpublished); format: in vitro ADME
T3 sequence (O15244 1-555): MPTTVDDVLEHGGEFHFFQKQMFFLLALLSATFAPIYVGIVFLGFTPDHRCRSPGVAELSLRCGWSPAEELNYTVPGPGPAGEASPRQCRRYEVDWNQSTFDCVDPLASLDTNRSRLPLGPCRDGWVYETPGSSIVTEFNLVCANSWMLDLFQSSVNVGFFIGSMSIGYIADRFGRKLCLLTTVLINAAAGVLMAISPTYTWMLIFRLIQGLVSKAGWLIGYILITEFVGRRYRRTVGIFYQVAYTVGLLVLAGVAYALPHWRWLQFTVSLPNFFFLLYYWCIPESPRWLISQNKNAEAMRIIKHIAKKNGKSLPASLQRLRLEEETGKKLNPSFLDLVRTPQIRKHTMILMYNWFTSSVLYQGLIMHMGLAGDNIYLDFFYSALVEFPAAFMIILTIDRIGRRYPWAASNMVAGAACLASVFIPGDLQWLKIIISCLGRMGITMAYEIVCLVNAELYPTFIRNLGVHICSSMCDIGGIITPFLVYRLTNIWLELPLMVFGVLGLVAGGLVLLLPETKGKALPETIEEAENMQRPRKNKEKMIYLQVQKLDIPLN

[7] = 10 mg, 10 mg single dose, fasted
[8] = 25 mg, 25 mg single dose, fasted
[9] = 50 mg, 50 mg single dose, fasted
[10] = 100 mg, 100 mg single dose, fasted
[11] = 150 mg, 150 mg single dose, fasted

Transporter substrate assessment [1]: not a common transport substrate | Accumulation [2]: no accumulation | Increase in AUC under the fed state compared with the fasted state ([3]; clinical study): 3% | AUC ([3]; 5 mg, 5 mg single dose, fasted): 8980 ng·h/mL | Cmax ([3]; 5 mg, 5 mg single dose, fasted): 101 ng/mL | clearance ([3]; 5 mg, 5 mg single dose, fasted): 9.67 mL/min | Vd/F ([3]; 5 mg, 5 mg single dose, fasted): 1.65 L/kg | AUC [3, 7]: 17700 ng·h/mL | Cmax [3, 7]: 237 ng/mL | clearance [3, 7]: 9.67 mL/min | Vd/F [3, 7]: 1.71 L/kg | AUC [3, 8]: 40500 ng·h/mL | Cmax [3, 8]: 413 ng/mL | clearance [3, 8]: 10.2 mL/min | Vd/F [3, 8]: 1.52 L/kg | AUC [3, 9]: 90400 ng·h/mL | Cmax [3, 9]: 981 ng/mL | clearance [3, 9]: 9.67 mL/min | Vd/F [3, 9]: 1.26 L/kg | AUC ([3]; 50 mg, 50 mg single dose, fed): 92900 ng·h/mL | Cmax ([3]; 50 mg, 50 mg single dose, fed): 834 ng/mL | clearance ([3]; 50 mg, 50 mg single dose, fed): 9.5 mL/min | Vd/F ([3]; 50 mg, 50 mg single dose, fed): 1.37 L/kg | AUC [3, 10]: 218000 ng·h/mL | Cmax [3, 10]: 2130 ng/mL | clearance [3, 10]: 8.33 mL/min | Vd/F [3, 10]: 1.07 L/kg | AUC [3, 11]: 269000 ng·h/mL | Cmax [3, 11]: 3330 ng/mL | clearance [3, 11]: 11 mL/min | Vd/F [3, 11]: 1.13 L/kg | Dose linearity ([3]; within the currently selected therapeutic dose range): dose linear | Transporter substrate assessment [4]: not a common transport substrate | d (0.1) [5]: 1.313 μm | d (0.5) [5]: 3.288 μm | d (0.9) [5]: 8.163 μm | Transporter substrate assessment [6]: not a common transport substrate
Structure (SMILES): CS(=O)(=O)n1cc2c(n1)CN([C@@H]1C[C@H](N)[C@@H](c3cc(F)ccc3F)O[C@@H]1C(F)(F)F)C2 [HSK7653]
